From the NIST ThermoML archive (doi:10.1016/j.fluid.2014.09.014)
Numbers after ± are expanded uncertainties.

Assay: refractive index (other wavelength) (dimensionless); xn = mol fraction of the nth substance listed
Details: 293.5 K, 101 kPa, Liquid, Standard Abbe refractometry

CC(C)OC(C)C [diisopropyl ether] + CC(C)O
refractive index
Details	Wavelength=546.1 nm	Wavelength=587.6 nm	Wavelength=589.3 nm	Wavelength=632.8 nm
x1 = 0.0277	–	1.37708 ± 0.00032	1.37703 ± 0.00032	1.37572 ± 0.00032
x1 = 0.0507	–	1.37699 ± 0.00032	1.37693 ± 0.00032	1.37562 ± 0.00032
x1 = 0.051	–	1.37708 ± 0.00032	1.37702 ± 0.00032	1.3757 ± 0.00032
x1 = 0.0717	–	1.37683 ± 0.00032	1.37678 ± 0.00032	1.37545 ± 0.00032
x1 = 0.1528	–	1.37629 ± 0.00032	1.37623 ± 0.00032	1.37492 ± 0.00032
x1 = 0.1553	–	1.37629 ± 0.00032	1.37623 ± 0.00032	1.37492 ± 0.00032
x1 = 0.1938	–	1.37597 ± 0.00033	1.37591 ± 0.00033	1.37461 ± 0.00033
x1 = 0.2029	–	1.3758 ± 0.00033	1.37574 ± 0.00033	1.37443 ± 0.00033
x1 = 0.245	–	1.37541 ± 0.00033	1.37536 ± 0.00033	1.37405 ± 0.00033
x1 = 0.297	–	1.37514 ± 0.00034	1.37509 ± 0.00034	1.37378 ± 0.00034
x1 = 0.2973	1.37687 ± 0.00034	1.37535 ± 0.00034	1.3753 ± 0.00034	1.374 ± 0.00034
x1 = 0.3068	1.37631 ± 0.00034	1.37481 ± 0.00034	1.37475 ± 0.00034	1.37345 ± 0.00034
x1 = 0.398	1.37522 ± 0.00035	1.37371 ± 0.00035	1.37366 ± 0.00035	1.37236 ± 0.00035
x1 = 0.4609	1.37466 ± 0.00035	1.37315 ± 0.00035	1.3731 ± 0.00035	1.3718 ± 0.00035
x1 = 0.5434	1.37395 ± 0.00036	1.37246 ± 0.00036	1.3724 ± 0.00036	1.37111 ± 0.00036
x1 = 0.6032	1.3734 ± 0.00037	1.37188 ± 0.00037	1.37182 ± 0.00037	1.37052 ± 0.00037
x1 = 0.6371	1.37304 ± 0.00038	1.37152 ± 0.00038	1.37146 ± 0.00038	1.37017 ± 0.00038
x1 = 0.701	1.37243 ± 0.00039	1.37093 ± 0.00039	1.37087 ± 0.00039	1.36958 ± 0.00039
x1 = 0.754	1.37205 ± 0.00039	1.37055 ± 0.00039	1.37049 ± 0.00039	1.3692 ± 0.00039
x1 = 0.791	1.37172 ± 0.0004	1.37022 ± 0.0004	1.37016 ± 0.0004	1.36887 ± 0.0004
x1 = 0.8296	1.37135 ± 0.00041	1.36987 ± 0.00041	1.36982 ± 0.00041	1.36854 ± 0.00041
x1 = 0.8864	1.37116 ± 0.00042	1.36966 ± 0.00042	1.36961 ± 0.00042	–
x1 = 0.8903	1.37076 ± 0.00042	1.36928 ± 0.00042	1.36922 ± 0.00042	–
x1 = 0.9113	1.37055 ± 0.00042	1.36905 ± 0.00042	1.369 ± 0.00042	–
x1 = 0.9547	1.37015 ± 0.00043	1.36866 ± 0.00043	1.36861 ± 0.00043	–
x1 = 0.973	1.36984 ± 0.00043	1.36836 ± 0.00043	1.3683 ± 0.00043	–
x1 = 0.9771	1.36988 ± 0.00043	1.36839 ± 0.00043	1.36834 ± 0.00043	–
x1 = 1	1.36955 ± 0.00044	1.36806 ± 0.00044	1.36801 ± 0.00044	–
